Data published in US6423739B1, “Method for aiding cerebral recovery following neurodegeneration” (Daiichi Pharmaceutical Co., Ltd., priority 2000, dated 2002).

Key:
[1] = test system: hippocampal and cortical rat embryo neurons; test: Neurite outgrowth in primary cultures of hippocampal and cortical rat embryo neurons; type: cell-based
[2] = test system: patients after a stroke (cerebral infarction or cerebral hemorrhage); conditions: post-stroke patients, Ohtomo et al. 1994; cited from earlier work
[3] = test system: rats with cerebral embolism; test: Watermaze spatial learning and retention test in rats with cerebral embolism; type: in vivo, rat
From the text: The mechanism of action of nefiracetam for this indication, which is not bound to the nootropic activity of the drug, is unknown, but it is believed that its surprising effect in improving ADL of a patient after a stroke or in the recovery of, or at least in improving the recovery of, a post-stroke patient, is due to a true brain repair. This assumption is confirmed by the effect of nefiracetam on spatial learning and retention in rats with cerebral embolism, treated for 9 days with nefiracetam or vehicle, starting within 24 hours of embolization.
In male Wistar rats weighing 190-220 g a total of 700 microspheres (48 μm in diameter) were injected into the right common carotid artery of each animal, whereby a quasi-immediate embolism occurs. The embolized animals were randomly divided into 2 groups, each of 13 animals with same neurological deficit, designated as “Control” (embolism plus Vehicle), or “Nefiracetam” (embolism plus nefiracetam 10 mg/kg/day). In addition, a group of 13 “Normal (Sham)” non-embolized animals were used. The administration of nefiracetam or of its vehicle started within the same day of embolization and treatment lasted 9 days. Seven days after embolization, the embolized rats were submitted to a watermaze test, said watermaze being adapted from the Morris water task. The time taken to find the platform (latency) was determined. […]

[4] = test system: post-stroke patients; test: Controlled clinical trial against placebo, symptom scale measuring Activities of Daily Living; type: in vivo, human
From the text: The activity of nefiracetam to improve ADL in post-stroke patients has been discovered during a controlled clinical trial against placebo. The compound has been administered orally to 32 post-stroke patients within six months after the event whilst, concurrently, 27 patients received placebo. The two groups of patients were followed during at least 8 weeks and followed up at the end of week 4 and at the end of week 8 on a symptom scale measuring Activities of Daily Living. […] Among the above 59 patients, 19 received nefiracetam and 10 received placebo within three months after stroke. […] The difference was significant (p=0.035, χ^2 test). […] Thus nefiracetam, when administered early after the event, appears to be the first drug which is able to induce a recovery from stroke or, at least, to improve the recovery from stroke.

## Cc1cccc(C)c1NC(=O)CN1CCCC1=O [Nefiracetam, N-(2,6-dimethylphenyl)-2-(2-oxo-1-pyrrolidinyl)acetamide]
[1]; concentrations of 0.1, 1, 10 and 100 micromoles/l
  Neurotrophic effect: neurite outgrowth: significantly increasing neurite outgrowth
[1]; hippocampal neurons
  Neurotrophic effect in combination with bFGF: potentiated by bFGF
[2]
  Activities of daily living, nefiracetam vs placebo group: no significant difference between the two groups
[3]; day 17 after embolization
  Persistence of the effect after washout: maintained even after washout
[3]; days 7-9 post-embolism, t-test, p<0.05 compared to control
  Difference in learning ability versus vehicle-treated (control) brain-injured animals: statistically significant
[4]; 19 patients who received nefiracetam within three months after stroke, p=0.035 vs placebo, chi2 test
  Patients showing a moderate or remarkable improvement (Activities of Daily Living): ~70%
[4]; early treatment after stroke
  Intellectual dysfunction: dramatically improved in a high percent of nefiracetam-treated patients
  Neurological signs and incontinence: tends to improve
[4]; oral, 32 post-stroke patients treated within six months after the event, followed at week 4 and week 8
  Improvement on symptom scale measuring Activities of Daily Living: moderate or remarkable improvement
